According to patent publication US20240277795A1, “INHIBITORS OF CYSTEINE PROTEASES AND METHODS OF USE THEREOF” (Pardes Biosciences, Inc., priority 2021, published 2024):
Read-outs that look alike come from different tables or passages of the source.

What was measured:
229E Mpro = 229E Mpro (Human coronavirus 229E, UniProt P0C6X1); assay: 229E Mpro enzymatic assay; assay type: biochemical, HCoV 229E
Description: (§1) Compounds were assayed using standard methods to assess compound activity and IC50. As an exemplary for assessment of the SARS-COV2 Mpro, the C-His6-tagged Mpro (NC_045512) was cloned, expressed in E. coli and purified. The assay buffer contained 20 mM of Tris-HCl (pH 7.3), 100 mM of NaCl, 1 mM of EDTA, 5 mM of TCEP and 0.1% BSA. The final concentrations of the Mpro protein and substrate were 25 nM and 25 μM, respectively, in the Mpro enzymatic assay. The Km of the Mpro substrate for the protease was 13.5 μM.
(§2) The compounds were added to an assay plate. For 100% inhibition control (HPE, hundred percent effect), 1 μM GC376 was added. For no inhibition control (ZPE, zero percent effect), no compound was added.
(§3) IC50 values of compounds were calculated with the GraphPad Prism software using the nonlinear regression model of log(inhibitor) vs. response—Variable slope (four parameters). The inhibition activity was calculated using the formula below, IC50 values is calculated using the Inhibition % data.
(§4) [formula] • #HEP: Hundred percent effect controls. Containing substrate+enzyme+1 μM GC376. • ZPE: Zero percent effective controls. Containing enzyme+substrate, no compound. • Sample: Compound activity testing wells. Containing compound+enzyme+substrate. • BG: Compound background control wells. Containing compound+substrate, no enzyme.

OC43 Mpro = OC43 Mpro (Human coronavirus OC43, UniProt P0C6X6); assay: OC43 Mpro enzymatic assay; assay type: biochemical, HCoV OC43
Chain of OC43 Mpro (P0C6X6 3247-3549): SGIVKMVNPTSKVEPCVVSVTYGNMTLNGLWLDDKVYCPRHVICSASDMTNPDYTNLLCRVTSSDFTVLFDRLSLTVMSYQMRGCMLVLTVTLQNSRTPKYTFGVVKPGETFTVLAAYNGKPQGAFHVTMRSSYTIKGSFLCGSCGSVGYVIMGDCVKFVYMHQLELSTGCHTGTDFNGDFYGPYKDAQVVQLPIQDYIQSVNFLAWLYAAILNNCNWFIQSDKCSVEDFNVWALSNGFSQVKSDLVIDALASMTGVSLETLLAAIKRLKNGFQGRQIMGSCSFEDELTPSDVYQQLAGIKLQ
Description: as §1, §2, §3, §4

SARS-COV2 Mpro = SARS-COV2 Mpro (Severe acute respiratory syndrome coronavirus 2, UniProt P0DTD1); assay: COVID-19 (nCoV-2019, SARS-CoV2) Mpro enzymatic assay; assay type: biochemical; details: read-out: COVID-19 Mpro IC50
Description: as §1, with “assay.” for “assay. The Km of the Mpro substrate for the protease was 13.5 μM.”
The compounds were added to an assay plate. For 100% inhibition control (HPE, hundred percent effect), 1 μM GC376 was added.
as §3
[formula] • #HEP: Hundred percent effect controls. […] Containing enzyme+substrate, no compound. • Sample: Compound activity testing wells. Containing compound+enzyme+substrate. • BG: Compound background control wells. Containing compound+substrate, no enzyme.

Chain of 229E Mpro (P0C6X1 2966-3267): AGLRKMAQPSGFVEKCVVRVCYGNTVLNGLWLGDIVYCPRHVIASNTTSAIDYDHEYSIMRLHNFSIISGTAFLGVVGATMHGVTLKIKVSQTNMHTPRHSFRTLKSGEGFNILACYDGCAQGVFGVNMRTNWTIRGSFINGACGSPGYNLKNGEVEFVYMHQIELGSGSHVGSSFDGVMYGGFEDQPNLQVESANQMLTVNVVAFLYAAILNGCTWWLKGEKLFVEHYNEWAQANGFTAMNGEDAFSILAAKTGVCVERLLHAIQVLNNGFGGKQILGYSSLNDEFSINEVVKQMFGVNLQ

## C[C@@H](OC1(C)CCC1)[C@H](NC(=O)C(F)(F)F)C(=O)N1C[C@H]2[C@@H]([C@H]1C(=O)N[C@H](C#N)C[C@@H]1CC(C)(C)NC1=O)C2(C)C [Compound 308, (1R,2S,5S)—N-[(1S)-1-cyano-2-[(3R)-5,5-dimethyl-2-oxo-pyrrolidin-3-yl]ethyl]-6,6-dimethyl-3-[(2S,3R)-3-(1-methylcyclobutoxy)-2-[(2,2,2-trifluoroacetyl)amino]butanoyl]-3-azabicyclo[3.1.0]hexane-2-carboxamide]
229E Mpro; Table 3
  IC50: < 2000 nM
OC43 Mpro; Table 3
  IC50: < 2000 nM
SARS-COV2 Mpro; Table 3
  IC50: < 2000 nM

## C[C@@H](OCC(F)(F)F)[C@H](NC(=O)C(F)(F)F)C(=O)N1C[C@H]2[C@@H]([C@H]1C(=O)N[C@H](C#N)C[C@@H]1CC(C)(C)NC1=O)C2(C)C [Compound 312, (1R,2S,5S)—N-[(1S)-1-cyano-2-[(3R)-5,5-dimethyl-2-oxo-pyrrolidin-3-yl]ethyl]-6,6-dimethyl-3-[(2S,3R)-2-[(2,2,2-trifluoroacetyl)amino]-3-(2,2,2-trifluoroethoxy)butanoyl]-3-azabicyclo[3.1.0]hexane-2-carboxamide]
229E Mpro; Table 5
  IC50: < 2000 nM
OC43 Mpro; Table 5
  IC50: < 2000 nM
SARS-COV2 Mpro; Table 5
  IC50: < 2000 nM

## C[C@@H](OC1(C)CCC1)[C@H](NC(=O)C(F)(F)F)C(=O)N1C[C@H]2[C@@H]([C@H]1C(=O)N[C@H](C#N)C[C@@H]1CC3(CC3)NC1=O)C2(C)C [Compound 314, (1R,2S,5S)—N-[(1S)-1-cyan-2-[(6R)-5-oxo-4-azaspiro[2.4]heptan-6-yl]ethyl]-6,6-dimethyl-3-[(2S,3R)-3-(1-methylcyclobutoxy)-2-[(2,2,2-trifluoroacetyl)amino]butanoyl]-3-azabicyclo[3.1.0]hexane-2-carboxamide]
229E Mpro; Table 5
  IC50: < 2000 nM
OC43 Mpro; Table 5
  IC50: < 2000 nM
SARS-COV2 Mpro; Table 5
  IC50: < 2000 nM

## C[C@@H](OC1(C)CC1)[C@H](NC(=O)C(F)(F)F)C(=O)N1C[C@H]2[C@@H]([C@H]1C(=O)N[C@H](C#N)C[C@@H]1CC3(CC3)NC1=O)C2(C)C [Compound 315, (1R,2S,5S)—N-[(1S)-1-cyan-2-[(6R)-5-oxo-4-azaspiro[2.4]heptan-6-yl]ethyl]-6,6-dimethyl-3-[(2S,3R)-3-(1-methylcyclopropoxy)-2-[(2,2,2-trifluoroacetyl)amino]butanoyl]-3-azabicyclo[3.1.0]hexane-2-carboxamide]
229E Mpro; Table 3
  IC50: < 2000 nM
OC43 Mpro; Table 3
  IC50: < 2000 nM
SARS-COV2 Mpro; Table 3
  IC50: < 2000 nM

## CC1(C)C[C@@H](C[C@@H](C#N)NC(=O)[C@@H]2[C@@H]3[C@H](CN2C(=O)C2(NC(=O)C(F)(F)F)CCC2)C3(C)C)C(=O)N1 [Compound 316, (1R,2S,5S)—N-[(1S)-1-cyano-2-[(3R)-5,5-dimethyl-2-oxo-pyrrolidin-3-yl]ethyl]-6,6-dimethyl-3-[1-[(2,2,2-trifluoroacetyl)amino]cyclobutanecarbonyl]-3-azabicyclo[3.1.0]hexane-2-carboxamide]
229E Mpro; Table 3
  IC50: > 30000 nM
OC43 Mpro; Table 3
  IC50: 10000 to 30000 nM
SARS-COV2 Mpro; Table 3
  IC50: < 2000 nM

## C[C@@H](OCC(F)(F)F)[C@H](NC(=O)C(F)(F)F)C(=O)N1C[C@H]2[C@@H]([C@H]1C(=O)N[C@H](C#N)C[C@@H]1CC3(CC3)NC1=O)C2(C)C [Compound 319, (1R,2S,5S)—N-[(1S)-1-cyan-2-[(6R)-5-oxo-4-azaspiro[2.4]heptan-6-yl]ethyl]-6,6-dimethyl-3-[(2S,3R)-2-[(2,2,2-trifluoroacetyl)amino]-3-(2,2,2-trifluoroethoxy)butanoyl]-3-azabicyclo[3.1.0]hexane-2-carboxamide]
229E Mpro; Table 5
  IC50: < 2000 nM
OC43 Mpro; Table 5
  IC50: < 2000 nM
SARS-COV2 Mpro; Table 5
  IC50: < 2000 nM

## C[C@@H](OC1(C2CC2)CC1)[C@H](NC(=O)C(F)(F)F)C(=O)N1C[C@H]2[C@@H]([C@H]1C(=O)N[C@H](C#N)C[C@@H]1CC(C)(C)NC1=O)C2(C)C [Compound 324, (1R,2S,5S)—N-[(1S)-1-cyano-2-[(3R)-5,5-dimethyl-2-oxo-pyrrolidin-3-yl]ethyl]-3-[(2S,3R)-3-(1-cyclopropylcyclopropoxy)-2-[(2,2,2-trifluoroacetyl)amino]butanoyl]-6,6-dimethyl-3-azabicyclo[3.1.0]hexane-2-carboxamide]
229E Mpro; Table 3
  IC50: < 2000 nM
OC43 Mpro; Table 3
  IC50: < 2000 nM
SARS-COV2 Mpro; Table 3
  IC50: < 2000 nM

## C[C@@H](OC1CC1)[C@H](NC(=O)C(F)(F)F)C(=O)N1C[C@H]2[C@@H]([C@H]1C(=O)N[C@H](C#N)C[C@@H]1CC3(CC3)NC1=O)C2(C)C [Compound 326, (1R,2S,5S)—N-[(1S)-1-cyan-2-[(6R)-5-oxo-4-azaspiro[2.4]heptan-6-yl]ethyl]-3-[(2S,3R)-3-(cyclopropoxy)-2-[(2,2,2-trifluoroacetyl)amino]butanoyl]-6,6-dimethyl-3-azabicyclo[3.1.0]hexane-2-carboxamide]
229E Mpro; Table 5
  IC50: < 2000 nM
OC43 Mpro; Table 5
  IC50: < 2000 nM
SARS-COV2 Mpro; Table 5
  IC50: < 2000 nM

## C[C@@H](OC1CCC1)[C@H](NC(=O)C(F)(F)F)C(=O)N1C[C@H]2[C@@H]([C@H]1C(=O)N[C@H](C#N)C[C@@H]1CC3(CC3)NC1=O)C2(C)C [Compound 327, (1R,2S,5S)—N-[(1S)-1-cyan-2-[(6R)-5-oxo-4-azaspiro[2.4]heptan-6-yl]ethyl]-3-[(2S,3R)-3-(cyclobutoxy)-2-[(2,2,2-trifluoroacetyl)amino]butanoyl]-6,6-dimethyl-3-azabicyclo[3.1.0]hexane-2-carboxamide]
229E Mpro; Table 5
  IC50: < 2000 nM
OC43 Mpro; Table 5
  IC50: < 2000 nM
SARS-COV2 Mpro; Table 5
  IC50: < 2000 nM

## CC1(C)C[C@@H](C[C@@H](C#N)NC(=O)[C@@H]2[C@@H]3[C@H](CN2C(=O)[C@@H](NC(=O)C(F)(F)F)C2CCC(C)(C)O2)C3(C)C)C(=O)N1 (stereo partly drawn) [Compound 328]
229E Mpro; Table 3
  IC50: < 2000 nM
OC43 Mpro; Table 3
  IC50: < 2000 nM
SARS-COV2 Mpro; Table 3
  IC50: < 2000 nM

## C[C@@H](OC1CC(F)(F)C1)[C@H](NC(=O)C(F)(F)F)C(=O)N1C[C@H]2[C@@H]([C@H]1C(=O)N[C@H](C#N)C[C@@H]1CC(C)(C)NC1=O)C2(C)C [Compound 330, (1R,2S,5S)—N-[(1S)-1-cyano-2-[(3R)-5,5-dimethyl-2-oxo-pyrrolidin-3-yl]ethyl]-3-[(2S,3R)-3-(3,3-difluorocyclobutoxy)-2-[(2,2,2-trifluoroacetyl)amino]butanoyl]-6,6-dimethyl-3-azabicyclo[3.1.0]hexane-2-carboxamide]
229E Mpro; Table 3
  IC50: < 2000 nM
OC43 Mpro; Table 3
  IC50: < 2000 nM
SARS-COV2 Mpro; Table 3
  IC50: < 2000 nM

## C[C@@H](OC1(C2CC2)CC1)[C@H](NC(=O)C(F)(F)F)C(=O)N1C[C@H]2[C@@H]([C@H]1C(=O)N[C@H](C#N)C[C@@H]1CC3(CC3)NC1=O)C2(C)C [Compound 331, (1R,2S,5S)—N-[(1S)-1-cyano-2-[(6R)-5-oxo-4-azaspiro[2.4]heptan-6-yl]ethyl]-3-[(2S,3R)-3-(1-cyclopropylcyclopropoxy)-2-[(2,2,2-trifluoroacetyl)amino]butanoyl]-6,6-dimethyl-3-azabicyclo[3.1.0]hexane-2-carboxamide]
229E Mpro; Table 3
  IC50: < 2000 nM
OC43 Mpro; Table 3
  IC50: < 2000 nM
SARS-COV2 Mpro; Table 3
  IC50: < 2000 nM

## C[C@@H](OC1(C#N)CC1)[C@H](NC(=O)C(F)(F)F)C(=O)N1C[C@H]2[C@@H]([C@H]1C(=O)N[C@H](C#N)C[C@@H]1CC(C)(C)NC1=O)C2(C)C [Compound 334, (1R,2S,5S)-3-[(2S,3R)-3-(1-cyanocyclopropoxy)-2-[(2,2,2-trifluoroacetyl)amino]butanoyl]-N-[(1S)-1-cyano-2-[(3R)-5,5-dimethyl-2-oxo-pyrrolidin-3-yl]ethyl]-6,6-dimethyl-3-azabicyclo[3.1.0]hexane-2-carboxamide]
229E Mpro; Table 5
  IC50: < 2000 nM
OC43 Mpro; Table 5
  IC50: < 2000 nM
SARS-COV2 Mpro; Table 5
  IC50: < 2000 nM

## C[C@@H](OC1(C#N)CC1)[C@H](NC(=O)C(F)(F)F)C(=O)N1C[C@H]2[C@@H]([C@H]1C(=O)N[C@H](C#N)C[C@@H]1CC3(CC3)NC1=O)C2(C)C [Compound 335]
229E Mpro; Table 5
  IC50: < 2000 nM
OC43 Mpro; Table 5
  IC50: < 2000 nM
SARS-COV2 Mpro; Table 5
  IC50: < 2000 nM
